# In US20260317356A1, “SMALL MOLECULE MODULATORS OF OGG1” (AZKARRA THERAPEUTICS, INC., priority 2023, published 2026):
# Biological target: hOGG1 (Homo sapiens, UniProt O15527)
# Assay: Biochemical fluorescence assay to measure enzymatic activity of hOGG1 (OGG1/APEX IC50)
# Design: Protein His-hOGG1 (12-323) was prepared; His (N); host or cells: E. coli
# Settings: 1 nM OGG1+2 nM APEX+6 nM dsDNA (8-oxo-dG substrate); pH 7.5; RT 40 min; read-out: OGG1/APEX IC50
# Outline: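 Coupled glycosylase/AP-endonuclease read-out: 8-oxo-dG-containing dsDNA (6 nM) cleaved by 1 nM His-hOGG1 (12-323) plus 2 nM APEX1 over 40 min at room temperature, after 20 min enzyme–compound preincubation; buffer 20 mM Tris pH 7.5, 100 mM KCl, 0.1% BSA, 0.01% Tween. IC50 comes from sigmoidal 3-parameter fitting of % inhibition derived from TAMRA signal.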
# hOGG1, sequence (O15527 12-323): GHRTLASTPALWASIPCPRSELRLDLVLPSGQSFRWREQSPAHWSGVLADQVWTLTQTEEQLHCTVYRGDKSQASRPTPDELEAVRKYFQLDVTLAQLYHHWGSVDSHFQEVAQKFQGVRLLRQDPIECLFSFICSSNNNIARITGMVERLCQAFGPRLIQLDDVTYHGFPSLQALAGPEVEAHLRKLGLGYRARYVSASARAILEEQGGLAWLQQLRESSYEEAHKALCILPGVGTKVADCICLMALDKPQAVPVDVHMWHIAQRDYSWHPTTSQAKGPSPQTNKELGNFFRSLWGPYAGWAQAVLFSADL
row,SMILES,IC50 [nM]
1,"COc1cc(NC(=O)[C@H]2CC[C@@H](N3Cc4c(Br)cc(NCC5CCCN5)cc4C3=O)CC2)ccc1C (stereo partly drawn) [Example 173, (1s,4s)-4-(4-Bromo-1-oxo-6-(pyrrolidin-2-ylmethylamino)isoindolin-2-yl)-N-(3-methoxy-4-methylphenyl)cyclohexanecarboxamide]",< 100
2,"COc1cc(NC(=O)[C@H]2CC[C@@H](N3Cc4c(Br)cncc4C3=O)CC2)ccc1C [Example 183, (1s,4s)-4-(7-bromo-3-oxo-1H-pyrrolo[3,4-c]pyridin-2(3H)-yl)-N-(3-methoxy-4-methylphenyl)cyclohexanecarboxamide]",100 to 1000
3,"COc1cc(NC(=O)[C@H]2CC[C@@H](N3Cc4c(C)cc(NCC5(O)CNC5)cc4C3=O)CC2)ccc1C [Example 136, (1s,4s)-4-(6-(((3-hydroxyazetidin-3-yl)methyl)amino)-4-methyl-1-oxoisoindolin-2-yl)-N-(3-methoxy-4-methylphenyl)cyclohexanecarboxamide]",< 100
4,"COc1cc(NC(=O)[C@H]2CC[C@@H](N3Cc4c(C)ccc(N5CC(OC)C5)c4NC3=O)CC2)ccc1C [Example 38, (1s,4s)-N-(3-Methoxy-4-methylphenyl)-4-(8-(3-methoxyazetidin-1-yl)-5-methyl-2-oxo-1,2-dihydroquinazolin-3(4H)-yl)cyclohexanecarboxamide]",< 100
5,"COc1cc(NC(=O)[C@H]2CC[C@@H](N3Cc4c(C)cc(CO)cc4NC3=O)CC2)ccc1C [Example 81, (1s,4s)-4-(7-(hydroxymethyl)-5-methyl-2-oxo-1,2-dihydroquinazolin-3(4H)-yl)-N-(3-methoxy-4-methylphenyl)cyclohexanecarboxamide]",< 100
6,"COc1cc(NC(=O)[C@H]2CC[C@@H](N3Cc4c(C)cc(CN5CC[C@@H](O)C5)cc4C3=O)CC2)ccc1C [Example 137, (1S,4s)-4-(6-(((R)-3-Hydroxypyrrolidin-1-yl)methyl)-4-methyl-1-oxoisoindolin-2-yl)-N-(3-methoxy-4-methylphenyl)cyclohexanecarboxamide]",< 100
7,"COc1cc(NC(=O)[C@H]2CC[C@@H](N3Cc4c(C)cccc4C3=O)CC2)ccn1 [Example 234, (1s,4s)-N-(2-Methoxypyridin-4-yl)-4-(4-methyl-1-oxoisoindolin-2-yl)cyclohexanecarboxamide]",> 10000
8,"COc1ncc(NC(=O)[C@H]2CC[C@@H](N3Cc4c(C)cccc4C3=O)CC2)cc1Cl [Example 221, (1s,4s)-N-(5-Chloro-6-methoxypyridin-3-yl)-4-(4-methyl-1-oxoisoindolin-2-yl)cyclohexanecarboxamide]",100 to 1000
9,"COc1cc(NC(=O)[C@H]2CC[C@@H](N3Cc4c(CN)ccc(Cl)c4C3=O)CC2)ccc1C [Example 133, (1s,4s)-4-(4-(Aminomethyl)-7-chloro-1-oxoisoindolin-2-yl)-N-(3-methoxy-4-methylphenyl)cyclohexane-1-carboxamide]",> 10000
10,"COc1cccc(NC(=O)[C@H]2CC[C@@H](N3Cc4c(C)cccc4C3=O)CC2)c1 [Example 245, (1s,4s)-N-(3-Methoxyphenyl)-4-(4-methyl-1-oxoisoindolin-2-yl)cyclohexanecarboxamide]",1000 to 10000
11,"COc1cc(NC(=O)[C@H]2CC[C@@H](N3Cc4c(N)cccc4C3=O)CC2)ccc1C [Example 154, (1s,4s)-4-(4-Amino-1-oxoisoindolin-2-yl)-N-(3-methoxy-4-methylphenyl)cyclohexanecarboxamide]",1000 to 10000
12,"COc1cc(NC(=O)[C@H]2CC[C@@H](N3Cc4c(ccc(N5CCC5)c4C)NC3=O)CC2)ccc1C [Example 42, (1s,4s)-4-(6-(Azetidin-1-yl)-5-methyl-2-oxo-1,2-dihydroquinazolin-3(4H)-yl)-N-(3-methoxy-4-methylphenyl)cyclohexanecarboxamide]",100 to 1000
13,"Cc1cccc2c1CN([C@H]1CC[C@@H](C(=O)Nc3nc(C)c(C)s3)CC1)C2=O [Example 240, (1s,4s)-N-(4,5-Dimethylthiazol-2-yl)-4-(4-methyl-1-oxoisoindolin-2-yl)cyclohexanecarboxamide]",> 10000
14,"COc1cc(NC(=O)[C@H]2CC[C@@H](N3Cc4c(ccc(O)c4C)NC3=O)CC2)ccc1C [Example 60, (1s,4s)-4-(6-Hydroxy-5-methyl-2-oxo-1,2-dihydroquinazolin-3(4H)-yl)-N-(3-methoxy-4-methylphenyl)cyclohexanecarboxamide]",< 100
15,"COc1cc(NC(=O)[C@H]2CC[C@H](n3[nH]c4c(Br)cccc4c3=O)CC2)ccc1C (single isomer, unassigned) [Example 159, (1r,4r)-4-(7-Bromo-3-oxo-1H-indazol-2(3H)-yl)-N-(3-methoxy-4-methylphenyl)cyclohexanecarboxamide]",> 10000
16,"COc1ccc(NC(=O)[C@H]2CC[C@@H](N3Cc4c(C)cccc4NC3=O)CC2)cc1C#N [Example 86, (1s,4s)-N-(3-cyano-4-methoxyphenyl)-4-(5-methyl-2-oxo-1,2-dihydroquinazolin-3(4H)-yl)cyclohexanecarboxamide]",< 100
17,"Cc1ccc(NC(=O)[C@H]2CC[C@@H](N3Cc4c(C)cccc4C3=O)CC2)cc1C1COC1 [Example 125, (1s,4s)-4-(4-Methyl-1-oxoisoindolin-2-yl)-N-(4-methyl-3-(oxetan-3-yl)phenyl)cyclohexane-1-carboxamide]",> 10000
18,"COc1cc(NC(=O)[C@H]2CC[C@@H](N3Cc4c(C)cc(O)cc4C3=O)CC2)ccc1C [Example 206, (1s,4s)-4-(6-Hydroxy-4-methyl-1-oxoisoindolin-2-yl)-N-(3-methoxy-4-methylphenyl)cyclohexanecarboxamide]",< 100
19,"Cc1ncc(NC(=O)[C@H]2CC[C@@H](N3Cc4c(C)cccc4C3=O)CC2)s1 [Example 232, (1s,4s)-4-(4-Methyl-1-oxoisoindolin-2-yl)-N-(2-methylthiazol-5-yl)cyclohexanecarboxamide]",> 10000
20,"Cc1cc(NCCN(C)C)cc2c1CN([C@H]1CC[C@@H](C(=O)Nc3nc(CCO)cs3)CC1)C2=O [Example 131, (1s,4s)-4-(6-((2-(Dimethylamino)ethyl)amino)-4-methyl-1-oxoisoindolin-2-yl)-N-(4-(2-hydroxyethyl)thiazol-2-yl)cyclohexane-1-carboxamide]",1000 to 10000
21,"Cc1cccc2c1CN([C@H]1CC[C@@H](C(=O)Nc3cc[nH]c(=O)c3)CC1)C2=O [Example 250, (1s,4s)-4-(4-methyl-1-oxoisoindolin-2-yl)-N-(2-oxo-1,2-dihydropyridin-4-yl)cyclohexanecarboxamide]",> 10000
22,"COc1cc(NC(=O)[C@H]2CC[C@@H](N3Cc4c(C)ccc(Br)c4NC3=O)CC2)ccc1C [Example 62, (1s,4s)-4-(8-Bromo-5-methyl-2-oxo-1,2-dihydroquinazolin-3(4H)-yl)-N-(3-methoxy-4-methylphenyl)cyclohexanecarboxamide]",< 100
23,"COc1cc(NC(=O)[C@H]2CC[C@@H](N3Cc4c(ccc(OC5CNC5)c4C)NC3=O)CC2)ccc1C [Example 49, (1s,4s)-4-(6-(Azetidin-3-yloxy)-5-methyl-2-oxo-1,2-dihydroquinazolin-3(4H)-yl)-N-(3-methoxy-4-methylphenyl)cyclohexanecarboxamide]",100 to 1000

# Same assay, conditions: OGG1/APEX IC50, 1 nM OGG1+2 nM APEX+6 nM dsDNA (8-oxo-dG substrate); pH 7.5; RT 40 min
row,SMILES,IC50 [nM]
1,"COc1cc(NC(=O)[C@H]2CC[C@@H](N3Cc4c(C)cc(N)cc4C3=O)CC2)ccc1C [Example 192, (1s,4s)-4-(6-Amino-4-methyl-1-oxoisoindolin-2-yl)-N-(3-methoxy-4-methylphenyl)cyclohexanecarboxamide]",< 100
